Values after ≈ are worked out from the molar mass of the structure shown. Where two headings read alike, the source gives them in different places. Peptide text beside a SMILES is read from it.
Columns and labels:
[1] = system: Cryptococcus neoformans IFM 5844; assay: Minimal fungicidal concentration (MFC) determination, spotting on YPD; type: cell-based; details: cultures from MIC assays diluted and spotted onto solid YPD, 30 °C, 48 h
Protocol: Minimal fungicidal concentration (MFC) determination. To assess fungicidal activity, both control and peptide-treated cultures from the MIC assays were diluted 10-fold and 100-fold in sterile distilled water. Five µL from each dilution was then spotted onto solid YPD medium (1 % pepton, 1 % dextrose, 0.5 % yeast extract, 2 % agar). The plates were incubated at 30 °C for 48 h and fungal growth was evaluated. MFC was defined as the lowest peptide concentration at which no visible fungal growth was detected, indicating complete fungicidal activity.

[2] = system: J774.2 mouse macrophage cells; assay: Cytotoxicity, MTT assay; type: cell-based; details: 25 µM, 3 h, X-VIVO medium; for reduction in macrophage viability: relative to untreated control
Protocol: J774.2 cells were cultured as described previously and seeded into microtiter plates at a density of 5 × 10⁴ cells per well. The cells were incubated at 37 °C under 5 % CO₂ and 95 % relative humidity in X-VIVO™ medium until they adhered to the plate surface. Following attachment, cells were treated with peptides at their respective MIC concentrations in X-VIVO medium for 3 h under the same incubation conditions.
After peptide treatment, cells were washed with PBS (phosphate-buffered saline) and incubated in X-VIVO™ medium supplemented with 0.5 mg/mL MTT reagent (3-[4,5-dimethylthiazol-2-yl]−2,5-diphenyltetrazolium bromide, Merck KGaA, Darmstadt, Germany). The MTT assay was used to evaluate cell viability by staining live cells, leading to the formation of formazan crystals. These crystals were dissolved in dimethyl sulfoxide (DMSO), and absorbance was measured at 570 nm using a SPECTROstar Nano plate reader (BMG LabTech, Offenburg, Germany). The absorbance of untreated control cells was set as 100 % viability, and experimental results were expressed relative to this control. Each experiment was conducted in at least three independent biological replicates to ensure statistical reliability.

[3] = system: C. neoformans IFM 5844 cells; assay: Cell membrane permeability, calcein-AM assay by flow cytometry; type: cell-based, Cryptococcus neoformans; details: half-MIC, 2 h, 30 °C, YNB
Protocol: The effect of the peptides on the cell membrane permeability of C. neoformans IFM 5844 cells was checked by flow cytometry with calcein-AM assay ([Olson, et al., 2001]). Calcein-acetoxymethyl ester (calcein-AM) is a membrane-permeable live-cell dye that, upon entering the cell, is cleaved by intracellular esterases, converting it into calcein, a membrane-impermeable fluorescent marker. The assay was carried out by suspending a total of 1 × 10^7 cells in 100 µl YNB medium containing 20 µg/mL indomethacin (Sigma-Aldrich, Saint Louis, MO, USA) and incubating them at 30 °C for 30 min to inhibit calcein transporters. Following this pre-treatment, membrane-permeable calcein-AM (Invitrogen, Waltham, MA, USA) was added to a final concentration of 5 µg/mL, and the samples were incubated at 30 °C for 3 h allowing the calcein-AM to enter the cells where esterases converted it to fluorescent calcein. After incubation, cells were washed twice with sterile distilled water and subsequently exposed to peptides at half-MIC concentrations in YNB medium for 2 h at 30 °C. Following peptide treatment, cells were washed twice with sterile distilled water, and fluorescence intensity was measured using a FlowSight® flow cytometer (Amnis-EMD Millipore) equipped with a 488-nm excitation laser. Intact cells stained with calcein-AM but not exposed to peptides served as controls. To ensure statistical reliability, four independent experiments were conducted, and fluorescence intensity was recorded from 10,000 cells per sample during each experiment.

[4] = system: Cryptococcus neoformans IFM 5844; assay: microbe, parasite or virus in culture; type: cell-based; details: five-fold diluted YNB + 1 % dextrose, 5 × 10^4 cells/mL, 30 °C, 72 h, OD 620 nm, ≥ 90 % growth inhibition, tested 25 to 0.39 µM, three biological replicates; read-out: MIC
Protocol: (§1) The susceptibility of Cryptococcus neoformans IFM 5844 to 20 peptides (Supplementary Table 1) was tested in a widely used synthetic medium to cultivate yeasts (YNB) and in a serum-free medium what is able to support the proliferation of macrophage cells (X-VIVO).
YNB medium: five-fold diluted Difco Yeast Nitrogen Base w/o Amino Acids medium (Becton, Dickinson and Company, Sparks, MD, USA) supplemented with 1 % dextrose
(§2) The minimal inhibitory concentration (MIC) of each peptide was determined by using micro-dilution assay. The C. neoformans suspensions were adjusted to 5 × 10^4 cells/mL concentration in either YNB or X-VIVO medium. A 96-well microtiter plate was prepared by adding 95 µL suspension per well followed by 5 µL of serially two-fold diluted peptide solutions achieving a final volume of 100 µl. The concentration of the peptides ranged from 25 to 0.39 µM. For control samples, 5 µL pure medium was added to the yeast cell suspension instead of peptides. Plates were incubated at 37 °C for 48 h in X-VIVO medium and 30 °C for 72 h in YNB medium. After incubation, optical density was measured at 620 nm using a SPECTROstar Nano plate reader (BMG LabTech, Offenburg, Germany). […] The experiments were carried out in three independent biological replicates.

[5] = system: Cryptococcus neoformans IFM 5844; type: cell-based; details: half-diluted X-VIVO 15 medium, 37 °C, 48 h, OD 620 nm, ≥ 90 % growth inhibition, tested 25 to 0.39 µM, three biological replicates
Protocol: as §1
X-VIVO medium: half-diluted X-VIVO™ 15 cell culture medium (Lonza, Verviers, Belgium).
as §2

C. neoformans cells = assay: Effect of X1-NCR247C and calcofluor white on CFU; type: cell-based, Cryptococcus neoformans; details: calcofluor white 2.5 µg/mL alone, 20 min
Protocol: To assess the effect of X1-NCR247C peptide and calcofluor white, C. neoformans cells were subjected to different treatments. […] For staining, cells were treated with calcofluor white at 2.5 µg/mL for the same duration. As a control, cells were incubated only with calcofluor white for 20 min.
For combined treatment, cells were first exposed to calcofluor white (2.5 µg/mL) for 5 min, followed by the addition of X1-NCR247C (0.39 µM), and the incubation continued for 15 additional minutes. Following treatment, cells were washed once with sterile distilled water to remove residual peptide and dye. Serial 10-, 100-, 1000-, and 10,000-fold dilutions were prepared, and 50 µL from each dilution was plated onto solid YPD medium in triplicate. After 48 h of incubation at 30 °C, colony-forming units were counted to determine cell viability under each condition.

| SMILES | fungistatic or fungicide mode of action [1] | reduction in macrophage viability [2] [%] | calcein leakage / membrane permeability disruption [3] | MIC [4] [µM] | further results |
| --- | --- | --- | --- | --- | --- |
| CC[C@H](C)[C@H](NC(=O)[C@H](CS)NC(=O)CNC(=O)[C@H](CC(N)=O)NC(=O)[C@@H](N)CCCNC(=N)N)C(=O)N[C@H](C(=O)N[C@@H](CC(=O)O)C(=O)N1CCC[C@H]1C(=O)N[C@@H](CCCNC(=N)N)C(=O)N[C@@H](CS)C(=O)N1CCC[C@H]1C(=O)N[C@@H](Cc1ccc(O)cc1)C(=O)N[C@@H](CCC(N)=O)C(=O)N[C@@H](CCC(N)=O)C(=O)N[C@@H](CS)C(=O)N[C@@H](CCCNC(=N)N)C(=O)N[C@@H](CCCNC(=N)N)C(=O)N1CCC[C@H]1C(=O)N[C@@H](CC(C)C)C(=O)N[C@@H](Cc1ccc(O)cc1)C(=O)N[C@@H](CS)C(=O)N[C@@H](CCCNC(=N)N)C(=O)N[C@@H](CCCNC(=N)N)C(=O)N[C@@H](CCCNC(=N)N)C(N)=O)C(C)C [NCR247] (H-RNGCIVDPRCPYQQCRRPLYCRRR-NH2; N-terminus assumed) | fungicidal effect | 25 | – | – | – |
| CC[C@H](C)[C@H](NC(=O)[C@@H]1CCCN1C(=O)[C@@H](NC(=O)[C@H](CS)NC(=O)[C@H](Cc1ccc(O)cc1)NC(=O)[C@H](CO)NC(=O)[C@H](CCCCN)NC(=O)[C@H](CCCNC(=N)N)NC(=O)[C@H](CS)NC(=O)[C@H](CCCNC(=N)N)NC(=O)[C@@H](NC(=O)[C@H](CC(N)=O)NC(=O)[C@H](C)NC(=O)[C@H](CCCNC(=N)N)NC(=O)[C@H](CCCNC(=N)N)NC(=O)[C@H](CC(C)C)NC(=O)[C@@H](N)CCCCN)C(C)C)C(C)C)C(N)=O [NCR335C17–33] (H-KLRRANVRCRKSYCVPI-NH2; N-terminus assumed) | fungicidal effect | 15 | highest calcein leakage | – | – |
| CC[C@H](C)[C@H](NC(=O)[C@H](CCCCN)NC(=O)[C@H](CCCCN)NC(=O)[C@H](C)NC(=O)[C@H](CC(C)C)NC(=O)[C@H](C)NC(=O)[C@H](C)NC(=O)[C@H](CC(C)C)NC(=O)[C@H](C)NC(=O)[C@H](CCCCN)NC(=O)[C@H](CC(C)C)NC(=O)[C@H](CC(N)=O)NC(=O)[C@@H](NC(=O)[C@H](CCCCN)NC(=O)CNC(=O)[C@H](CC(C)C)NC(=O)[C@H](CC(C)C)NC(=O)[C@H](Cc1ccc(O)cc1)NC(=O)CNC(=O)[C@H](C)N)[C@@H](C)CC)C(=O)N[C@@H](CC(C)C)C(N)=O [TP10, reference compound] | – | – | – | 12.5 | macrophage viability compared to untreated control ([2]; p ≤ 0.01): significantly reduced macrophage viability |
| CC[C@H](C)[C@H](NC(=O)[C@H](CCCCN)NC(=O)[C@H](CCCCN)NC(=O)[C@H](C)NC(=O)[C@H](CC(C)C)NC(=O)[C@H](C)NC(=O)[C@H](C)NC(=O)[C@H](CC(C)C)NC(=O)[C@H](C)NC(=O)[C@@H](N)CCCCN)C(=O)N[C@@H](CC(C)C)C(=O)N[C@@H](CCC(N)=O)C(=O)N[C@@H](CCC(N)=O)C(=O)N[C@@H](CS)C(=O)N[C@@H](CCCNC(=N)N)C(=O)N[C@@H](CCCNC(=N)N)C(=O)N1CCC[C@H]1C(=O)N[C@@H](CC(C)C)C(=O)N[C@@H](Cc1ccc(O)cc1)C(=O)N[C@@H](CS)C(=O)N[C@@H](CCCNC(=N)N)C(=O)N[C@@H](CCCNC(=N)N)C(=O)N[C@@H](CCCNC(=N)N)C(N)=O [X2-NCR247C] (H-KALAALAKKILQQCRRPLYCRRR-NH2; N-terminus assumed) | fungicidal effect | – | highest calcein leakage | 0.78 | MIC [5]: 3.12 µM (≈ 8.6 µg/mL) |
| O=S(=O)(O)c1cc(Nc2nc(Nc3ccccc3)nc(N(CCO)CCO)n2)ccc1/C=C/c1ccc(Nc2nc(Nc3ccccc3)nc(N(CCO)CCO)n2)cc1S(=O)(=O)O [calcofluor white, reference compound] | – | – | – | – | effect on CFU counts (C. neoformans cells): did not reduce CFU counts |
